# What was measured:
# Format in all cases: in vivo
# [1] = system: corn (Krasnodar 385 MV variety); assay: Corn seed treatment with BHMPA salts: germination energy and germination rate
# Protocol: (§1) Control—Soaking Seeds in Water;
# (§2) Experimental versions—soaking seeds in BHMPA solutions and solutions of BHMPA Ca, Mg, Na, Co, Mn, Cu, and Zn salts at 1·10^−6-1·10^−12% concentrations (doses). The studies were conducted in laboratory in Petri dishes; seed bed—two layers of filter paper. 50 seeds soaked in water (control) and in the solutions of the tested compounds (experimental) were placed into each dish. Wheat, corn, and rice seeds were exposed for one hour.
# (§3) Analysis was conducted according to the government standards GOST 12038-84 “Crop seeds. Technical conditions for determining the germination energy and germination rate”, GOST 12044-93 “Crop seeds. Methods for determining disease contamination.”
# (§4) Seed germination energy and rate were calculated in percent as an arithmetic mean of the four experimental results (germination energy on the 4th day, wheat germination on the 8th day, rice and corn germination—on the 7th day). Germination was determined based on the germinating power indicators (length of the roots and sprouts and their wet and dry mass per 100 shoots).
# (§5) The effect of pre-sowing seed treatment with the claimed BHMPA salts of biogenic metals was studied on winter wheat (Vershin variety), corn (Krasnodar 385 MV variety), and rice (Diamant variety).
# rice (Diamant variety) = assay: Rice seed treatment with BHMPA salts: germination energy and germination rate
# Protocol: as §1, §2, §3, §4, §5
# [2] = system: winter wheat (Vershin variety); assay: Winter wheat seed treatment with BHMPA salts: germination energy and germination rate
# Protocol: as §1, §2, §3, §4, §5
# [3] = comparative study vs Melaphen, 1·10^−10% solution
# [4] = rice seed treatment, solution 1 · 10^−9%
# [5] = seed treatment, concentration 1 · 10^−6%
# [6] = seed treatment, concentration 1 · 10^−7%
# [7] = seed treatment, concentration 1 · 10^−8%
# [8] = seed treatment, concentration 1 · 10^−9%
# [9] = seed treatment, concentration 1 · 10^−10%
# [10] = seed treatment, concentration 1 · 10^−11%
# [11] = seed treatment, concentration 1 · 10^−12%
# [12] = winter wheat Vershin, 1·10^−6% solution
# [13] = winter wheat Vershin, 1·10^−7% solution
# [14] = winter wheat Vershin, 1·10^−8% solution
# [15] = winter wheat Vershin, 1·10^−9% solution
# [16] = winter wheat Vershin, 1·10^−10% solution
# [17] = winter wheat Vershin, 1·10^−11% solution
# [18] = winter wheat Vershin, 1·10^−12% solution
# [19] = winter wheat, comparative study vs Melaphen, 1·10^−12% solution
smiles,measurement,setting,value
"O=P([O-])(CO)CO.O=P([O-])(CO)CO.[Ca+2] [Ca-salt, Calcium BHMPA Salt]",Germination energy,[1]; 1·10^−6% solution,74.3%
same,Germination rate,[1]; 1·10^−6% solution,77.0%
same,Germination energy,[1]; 1·10^−7% solution,77.3%
same,Germination rate,[1]; 1·10^−7% solution,82.0%
same,Germination energy,[1]; 1·10^−8% solution,81.8%
same,Germination rate,[1]; 1·10^−8% solution,84.2%
same,Germination energy,[1]; 1·10^−9% solution,85.0%
same,Germination rate,[1]; 1·10^−9% solution,87.7%
same,Germination energy,[1]; 1·10^−10% solution,87.8%
same,Germination rate,[1]; 1·10^−10% solution,90.0%
same,Germination energy,[1]; 1·10^−11% solution,85.5%
same,Germination rate,[1]; 1·10^−11% solution,88.3%
same,Germination energy,[1]; 1·10^−12% solution,82.3%
same,Germination rate,[1]; 1·10^−12% solution,85.0%
same,Germination energy,[1]; [3],85.0%
same,Germination rate,[1]; [3],95.3%
same,"Germination energy, %",rice (Diamant variety); [4],86.3%
same,"Germination rate, %",rice (Diamant variety); [4],93.3%
same,Germination energy,"rice (Diamant variety); rice, 1·10^−10% solution",85.0%
same,Germination rate,"rice (Diamant variety); rice, 1·10^−10% solution",92.0%
same,Germination energy,rice (Diamant variety); [5],75.9%
same,Germination rate,rice (Diamant variety); [5],81.0%
same,Germination energy,rice (Diamant variety); [6],76.0%
same,Germination rate,rice (Diamant variety); [6],83.3%
same,Germination energy,rice (Diamant variety); [7],79.3%
same,Germination rate,rice (Diamant variety); [7],85.0%
same,Germination energy,rice (Diamant variety); [8],82.0%
same,Germination rate,rice (Diamant variety); [8],87.0%
same,Germination energy,rice (Diamant variety); [9],85.0%
same,Germination rate,rice (Diamant variety); [9],92.0%
same,Germination energy,rice (Diamant variety); [10],83.3%
same,Germination rate,rice (Diamant variety); [10],89.3%
same,Germination energy,rice (Diamant variety); [11],78.3%
same,Germination rate,rice (Diamant variety); [11],84.3%
same,Germination energy,[2]; [12],85.3%
same,Germination rate,[2]; [12],88.0%
same,Germination energy,[2]; [13],90.8%
same,Germination rate,[2]; [13],94.3%
same,Germination energy,[2]; [14],80.9%
same,Germination rate,[2]; [14],84.0%
same,Germination energy,[2]; [15],81.2%
same,Germination rate,[2]; [15],85.3%
same,Germination energy,[2]; [16],86.1%
same,Germination rate,[2]; [16],88.0%
same,Germination energy,[2]; [17],87.0%
same,Germination rate,[2]; [17],89.3%
same,Germination energy,[2]; [18],88.9%
same,Germination rate,[2]; [18],92.0%
same,Germination energy,[2]; [19],87.0%
same,Germination rate,[2]; [19],93.7%
